Measurements as given in US9944607B2, “Thiohydantoin derivatives and uses thereof” (Whitehead Institute for Biomedical Research, priority 2012, dated 2018).
≈ marks a conversion by molar mass, not a printed value. Where two headings read alike, the source gives them in different places.

Columns and labels:
[1] = test system: Saccharomyces cerevisiae W303; assay: Secondary S. cerevisiae inhibition in glycerol media (OD600); type: cell-based; conditions: for IC50: read-out: Growth Inhibition Activity, IC50 (μM), S. cerevisiae (n = 3) On glycerol
From the text: (§1) Cell Lines. • Candida albicans CaCi-2; a drug-resistant clinical isolate was provided by the Whitehead Institute (Redding et al., Clin. Infect. Dis. 1994, 18(2):240-2). This strain was used for the primary assay. • Candida albicans CaCi-17; a strongly drug-resistant clinical isolate was provided by the Whitehead Institute (Redding et al., Clin. Infect. Dis. 1994, 18(2):240-2). This strain was used for the primary assay • Saccharyomyces cerevisiae W303-1a (ATCC 208352); a well-characterized Saccharomyces strain used for determination of glycolytic vs. respiratory metabolism, as well as in the mitochondrial disruption assay. • Candida glabrata (ATCC 2001); used for determination of glycolytic vs. respiratory metabolism. • NIH-3T3 mammalian fibroblasts (ATCC; CRL no.1658); used for mammalian toxicity assays. […]
(§2) Saccharomyces, while not a major human pathogen, is a useful lab model with well-developed genetic tools available. Candida glabrata is an increasingly prominent clinical problem for immune-compromised patients but with fewer genetic tools available with which to study it. These organisms can utilize alternative metabolic pathways to support growth and survival depending on the carbon source. By comparing the concentration-dependent inhibition of yeast growth in glycerol relative to glucose media, a quantitative assessment of a compound's ability to disrupt respiration can be determined. […].
(§3) Clear, flat bottom, black 384-well plates (Corning Catalog no. 3712BC; Lot no. 35808016); Amphotericin B (Sigma Catalog no. A2411) 15 mM stock solution in DMSO; Pen/Strep (Gibco Catalog no. 10378-016; Lot no21040170) 100× in PBS.
(§4) Synthetic defined growth medium. Complete Supplement Mixture; (Sunrise Science, Catalog No. 1001-100); Yeast Nitrogen Base without ammonium sulfate (MP Biomedicals, Catalog No. 4027-012); Glycerol (Sigma Catalog No. G-9012). • Prepare medium by dissolving 0.79 g Complete Supplement Mixture and 1.7 g Yeast Nitrogen Base in 800 mL water. • Add 20 mL of glycerol. Adjust final volume to 1000 mL. Filter sterilize.
(§5) Fungal Inoculum. Test Strains: C. glabrata (ATCC 2001) and Saccharomyces cerevisiae W303. • Inoculate 100 μL of yeast from cryopreserved stock into 250 mL shaker flask containing 20 mL growth medium. Shake at 30° C. overnight (about 16 hours). • Read OD 600 of 1 mL of fungal culture in a cuvette using a standard optical density reader (Eppendorf BioPhotometer Plus), with growth medium as a background blank. • Dilute to desired volume of fungal inoculum to produce an OD600 reading of 0.005 (S. cerevisiae) or 0.004 (C. glabrata).
(§6) Procedures • Use a Thermo Combi nL to dispense 20 μL/well of assay media into all wells. • Add 2 μL of Amphotericin B to control wells. • Pin 100 nL of test compound from compound plates into assay plates using a CyBi-Well pin tool. • Dispense 20 μL/well of culture into the assay media in all wells. • Incubate the plates in a humidified (90% humidity) Liconic incubator at 37° C. without agitation for 48 hours. • Shake plates briefly. • Read OD600 of wells on a standard plate reader as measure of relative fungal growth. Envision (Perkin Elmer) plate reader settings: Ex Photometric 600, Top read. Secondary Glucose Assay Protocol (AID 623971, 623967, 624013, 624025) Materials and Reagents

[2] = test system: C. glabrata (ATCC 2001); assay: Secondary C. glabrata inhibition in glycerol media (OD600); type: cell-based, Candida glabrata; conditions: for IC50: read-out: Growth Inhibition Activity, IC50 (μM), C. glabrata (n = 3) On glycerol
From the text: as §1, §2, §3, §4, §5, §6

[3] = test system: Saccharomyces cerevisiae W303; assay: Secondary S. cerevisiae inhibition in glucose media (OD600); type: cell-based; conditions: for IC50: read-out: Growth Inhibition Activity, IC50 (μM), S. cerevisiae (n = 3) On glucose
From the text: as §1, §2, §6
(§7) Clear, flat bottom, black 384-well plates (Corning, Catalog No. 3712BC; Lot No. 35808016); Amphotericin B (Sigma, Catalog no. A2411) 15 mM stock solution in DMSO; Pen/Strep (Gibco, Catalog No. 10378-016; Lot no21040170) 100× in PBS.
(§8) Synthetic defined growth medium. Complete Supplement Mixture; (Sunrise Science, Catalog No. 1001-100); Yeast Nitrogen Base without ammonium sulfate (MP Biomedicals, Catalog No. 4027-012); Glucose (Sigma, Catalog No. G7021). • Prepare medium by dissolving 0.79 g of Complete Supplement Mixture and 1.7 g of Yeast Nitrogen Base in 800 mL of water. • Add 20 g of glucose. Adjust final volume to 1000 mL. Filter sterilize.
(§9) Fungal Inoculum. Test Strains: C. glabrata (ATCC 2001) and Saccharomyces cerevisiae W303. • Inoculate […] of yeast from cryopreserved stock into a 250 mL shaker flask containing 20 mL of growth medium. Shake at 30° C. overnight (about 16 hours). • Read OD 600 of 1 mL of fungal culture in a cuvette using a standard optical density reader (Eppendorf BioPhotometer Plus), with growth medium as a background blank. • Dilute to desired volume of fungal inoculum to produce an OD600 reading of 0.005 (S. cerevisiae) or 0.004 (C. glabrata).
as §6, with “read. 4.5.” for “read.”, “Mitochondrial Disruption” for “Glucose”, “Assay” for “Assay Protocol”, “No. 624062” for “623971, 623967, 624013, 624025) Materials”, “624068)” for “Reagents”

[4] = test system: C. glabrata (ATCC 2001); assay: Secondary C. glabrata inhibition in glucose media (OD600); type: cell-based, Candida glabrata; conditions: for IC50: read-out: Growth Inhibition Activity, IC50 (μM), C. glabrata (n = 3) On glucose
From the text: as §1, §2, §6, §7, §8, §9
as §6, with “read. 4.5.” for “read.”, “Mitochondrial Disruption” for “Glucose”, “Assay” for “Assay Protocol”, “No. 624062” for “623971, 623967, 624013, 624025) Materials”, “624068)” for “Reagents”

[5] = Solubility in PBS pH 7.4 with 1% DMSO; conditions: for solubility at 24 h: phosphate buffered saline with 1% DMSO, pH 7.4, aqueous buffer, kinetic from dmso stock
Method: Solubility was determined in phosphate buffered saline (PBS) pH 7.4 with 1% DMSO. Each compound was prepared in duplicate at 100 μM in both 100% DMSO and PBS with 1% DMSO. Compounds were allowed to equilibrate at room temperature with a 250 rpm orbital shake for 24 hours. After equilibration, samples were analyzed by UPLC-MS (Waters, Milford, Mass.) with compounds detected by SIR detection on a single quadrupole mass spectrometer. The DMSO samples were used to create a two-point calibration curve to which the response in PBS was fit.

[6] = test system: Candida albicans CaCi-17; assay: Primary assay: C. albicans CaCi-17 growth inhibition (Alamar Blue); type: cell-based; conditions: Candida albicans, read-out: Growth Inhibition Activity, IC50 (μM), C. albicans (n = 3) CaCi-17
[7] = test system: NIH-3T3 mammalian fibroblasts; assay: Counterscreen mammalian cell toxicity assay (Alamar Blue); type: cell-based, murine; conditions: for Growth Inhibition Activity, IC50 (μM), 3T3 Fibroblasts (n = 1): Table 4, 48 hours, tested up to 26 μM
Method: Quiescent murine fibroblasts were subjected to incubation with compounds of interest for 48 hours. Subsequent cell viability was determined via measuring Alamar Blue fluorescence.
Procedures • After overnight culture, pin compounds into wells at 100 nL/well using the CyBio CyBi-Well pinning instrument. • Return the plates to the tissue culture incubator and incubate the culture for an additional 48 hours at 37° C. under 5% CO2. • At the completion of this incubation, add Alamar Blue solution diluted 1:40 in PBS to each well (10 μL/well) to achieve a final dilution of 1:200. • Incubate the plates for an additional 2-3 hours at 37° C. under 5% CO2. • Read the Relative Fluorescence Intensity (RFU) of wells on a standard plate reader as a measure of relative cell growth. […] 4.4.

[8] = test system: Candida albicans CaCi-2; assay: Primary assay: C. albicans CaCi-2 growth inhibition (Alamar Blue); type: cell-based; as to Growth Inhibition Activity, IC50 (μM), C. albicans CaCi-2, values marked ‡: less than 0.10 µM in AID 623899
[9] = Table 8, n = 3, glycerol media, 48 hours, tested up to 3 μM
[10] = Table 8, n = 3, glucose media, 48 hours, tested up to 3 μM
[11] = Saccharomyces cerevisiae, W303, 48 h
[12] = Nakaseomyces glabratus, ATCC2001, 48 h
[13] = Saccharomyces cerevisiae, W303, Table 8, n = 3, glycerol media, 48 hours, tested up to 3 μM
[14] = Nakaseomyces glabratus, ATCC2001, Table 8, n = 3, glycerol media, 48 hours, tested up to 3 μM
[15] = CACI17, Table 4, n = 3, 48 hours, tested up to 26 μM
[16] = Saccharomyces cerevisiae, W303, Table 8, n = 3, glucose media, 48 hours, tested up to 3 μM
[17] = Candida albicans, CACI2; read-out: Growth Inhibition Activity, IC50 (μM), C. albicans CaCi-2, values marked ‡
[18] = Nakaseomyces glabratus, ATCC2001, Table 8, n = 3, glucose media, 48 hours, tested up to 3 μM

Row | Structure (SMILES) | IC50 [1, 11] [µM] | solubility at 24 h [5] [µM] | IC50 [2, 12] [µM] | IC50 ([6]; CACI17, 48 h) [µM] | Growth Inhibition Activity, IC50 (μM), 3T3 Fibroblasts (n = 1) [7] | IC50 [3, 11] [µM] | IC50 [4, 12] [µM] | IC50 [1, 13] [µM] | IC50 [2, 14] [µM] | IC50 [6, 15] [µM] | IC50 [3, 16] [µM] | IC50 [8, 17] [µM] | IC50 [4, 18] [µM] | further results
1 | C[C@@H]1[C@H](O)[C@@H](C)/C=C/C=C/C=C/C=C/C=C/C=C/C=C/[C@H](O[C@@H]2O[C@H](C)[C@@H](O)[C@H](N)[C@@H]2O)C[C@@H]2O[C@](O)(C[C@@H](O)C[C@@H](O)[C@H](O)CC[C@@H](O)C[C@@H](O)CC(=O)O[C@H]1C)C[C@H](O)[C@H]2C(=O)O [Amphotericin B, reference compound] | – | – | – | – | – | – | – | – | – | – | – | – | – | IC50 [1, 9]: 0.26 µM; Growth inhibition of S. cerevisiae on glycerol IC50 ([1]; figure legends and Tables 9, 10, 13, AID 623969): significantly inhibited; IC50 [2, 9]: 0.62 µM; Growth inhibition of C. glabrata on glycerol IC50 ([2]; figure legends and Tables 9, 10, 13, AID 623965): significantly inhibited; IC50 [3, 10]: 0.38 µM; Growth inhibition of S. cerevisiae on glucose IC50 ([3]; figure legends and Tables 9, 10, 13, AID 623971): significantly inhibited; IC50 [4, 10]: 1.2 µM; Growth inhibition of C. glabrata on glucose IC50 ([4]; figure legends and Tables 9, 10, 13, AID 623967): significantly inhibited
2 | CCOC(=O)N1C(=O)C2(CCCCC2)N(c2ccccc2)C1=S [compound 56604821] | 0.015 | 1.6 (≈ 0.532 µg/mL) | 0.026 | 4.2 | Inactive | > 3 | > 3 | – | – | – | – | – | – | IC50 ([8]; Candida albicans, CACI2, 48 h, read-out: Growth Inhibition Activity, IC50 (μM), C. albicans (n = 3) CaCi-2): 0.2 µM
3 | CCOC(=O)N1C(=O)C2(CCCCC2)N(c2ccc(C#N)cc2)C1=S [compound 56604847] | – | < 1 | – | – | Inactive | – | – | 0.004 | 0.033 | 1.8 | > 3 | 0.08 | > 3 | –
4 | CCOC(=O)N1C(=O)C2(CCCCC2)N(c2ccc(F)cc2)C1=S [compound 56604860] | – | – | – | – | Inactive | – | – | 0.004 | 0.011 | 1 | > 3 | 0.04 | > 3 | PBS Solubility ([5]; Table 4, PBS pH 7.4 with 1% DMSO, 24 hours, room temperature): 1.1 µM
5 | CCOC(=O)N1C(=O)C2(CCCCC2)N(c2ccc(Cl)cc2)C1=S [compound 56604865] | 0.006 | < 1 | 0.022 | 1.4 | – | > 3 | > 3 | – | – | – | – | – | – | IC50 ([7]; Mus musculus, NIH3T3, 48 h, read-out: Growth Inhibition Activity, IC50 (μM), 3T3 Fibroblasts (n = 1)): 22.3 µM; IC50 ([8]; Candida albicans, CACI2, read-out: Growth Inhibition Activity, IC50 (μM), C. albicans CaCi-2, values marked ‡): 0.06 µM
